From ChEMBL document CHEMBL1201862, “PubChem BioAssay data set” (2004)
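How tested: cells in 96-well plates exposed to compound for 48 hours at five concentrations. GI50 is the concentration that inhibits growth by half.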 Activity calls are given as the source filed them. No stated cut-off is given here; in the data, active = GI50 up to about 1.1 µM and inactive = higher.

Legend:
Experiment in all cases: NCI anticancer screen, dose series, 48 h
SNB-78 = system: SNB-78
SF-539 = system: SF-539
OVCAR-5 = system: OVCAR-5
HOP-62 = system: HOP-62
SF-268 = system: SF-268
HCC 2998 = system: HCC 2998
RXF 393 = system: RXF 393
786-0 = system: 786-0
SK-MEL-28 = system: SK-MEL-28
NCI-H23 = system: NCI-H23
MOLT-4 = system: MOLT-4
OVCAR-4 = system: OVCAR-4
K562 = system: K562
SK-MEL-5 = system: SK-MEL-5
HCT-15 = system: HCT-15
SK-MEL-2 = system: SK-MEL-2
T47D = system: T47D
DU-145 = system: DU-145
BT-549 = system: BT-549
Hs-578T = system: Hs-578T

| Structure (SMILES) | GI50 (SNB-78) | GI50 (SF-539) | GI50 (OVCAR-5) | GI50 (HOP-62) | GI50 (SF-268) | GI50 (HCC 2998) | GI50 (RXF 393) | GI50 (786-0) | GI50 (SK-MEL-28) | GI50 (NCI-H23) | GI50 (MOLT-4) | GI50 (OVCAR-4) | GI50 (K562) | GI50 (SK-MEL-5) | GI50 (HCT-15) [µM] | GI50 (SK-MEL-2) | GI50 (T47D) | GI50 (DU-145) | GI50 (BT-549) | GI50 (Hs-578T) |
| --- | --- | --- | --- | --- | --- | --- | --- | --- | --- | --- | --- | --- | --- | --- | --- | --- | --- | --- | --- | --- |
| Nc1nc(-c2ccccc2)cc(-c2ccccc2O)n1 | 76.9 µM (inactive) | 37.4 µM (inactive) | 32.8 µM (inactive) | 25.1 µM (inactive) | 24 µM (inactive) | 40.7 µM (inactive) | 27.3 µM (inactive) | 48.6 µM (inactive) | 57.1 µM (inactive) | 43.3 µM (inactive) | 25.1 µM (inactive) | 51.6 µM (inactive) | 39.1 µM (inactive) |  |  |  |  |  |  |  |
| N#CC1(Cc2ccccc2[N+](=O)[O-])c2ccccc2C2C(N1C(=O)c1ccccc1)C2(Cl)Cl (configuration not stated) | 77.3 µM (inactive) | > 100 µM (inactive) | > 100 µM (inactive) |  | > 100 µM (inactive) | 3.76 µM (inactive) | > 100 µM (inactive) | > 100 µM (inactive) | > 100 µM (inactive) | > 100 µM (inactive) | > 100 µM (inactive) | 13.2 µM (inactive) | > 100 µM (inactive) | > 100 µM (inactive) | > 100 | > 100 µM (inactive) |  |  |  |  |
| COc1cccc(NC(=O)CC(=O)N2NC(C)C(/N=N/c3cccc(C(=O)O)c3)C2=O)c1 (configuration not stated) | > 100 µM (inactive) | > 100 µM (inactive) | > 100 µM (inactive) | > 100 µM (inactive) | > 100 µM (inactive) | > 100 µM (inactive) |  | > 100 µM (inactive) | > 100 µM (inactive) | > 100 µM (inactive) | > 100 µM (inactive) | > 100 µM (inactive) | > 100 µM (inactive) | > 100 µM (inactive) |  | > 100 µM (inactive) |  |  |  |  |
| O=C(O)c1cnccc1-c1cc(=O)[nH]n1-c1ccccc1 |  | 35.6 µM (inactive) | > 63.4 µM (inactive) | 51.1 µM (inactive) | > 83.2 µM (inactive) | 25 µM (inactive) | 98.6 µM (inactive) | > 79.6 µM (inactive) | > 43.4 µM (inactive) | 97.7 µM (inactive) | 13.9 µM (inactive) | > 51.9 µM (inactive) | 10 µM (inactive) | 52.4 µM (inactive) | 25.9 | > 63.2 µM (inactive) | 23.5 µM (inactive) | > 53.1 µM (inactive) | > 80.5 µM (inactive) | > 91.8 µM (inactive) |
| N=C(c1ccccc1)N(c1ccccc1)c1ccccc1 | 55 µM (inactive) | 74.1 µM (inactive) | 76.7 µM (inactive) | > 100 µM (inactive) | 48.6 µM (inactive) | > 100 µM (inactive) | 30.5 µM (inactive) | 28.1 µM (inactive) | > 100 µM (inactive) | > 100 µM (inactive) |  | 88.9 µM (inactive) |  |  |  | > 100 µM (inactive) |  |  |  |  |
| CN(C)CCNc1ccc(C(=O)NCCCN(C)CCCNC(=O)c2ccc(NCCN(C)C)c3c(=O)c4ccccc4[nH]c23)c2[nH]c3ccccc3c(=O)c12 |  | < 0.01 µM (active) | 0.0458 µM (active) | < 0.0291 µM (active) | < 0.01 µM (active) | 0.0246 µM (active) | 0.0809 µM (active) | < 0.0119 µM (active) | 0.109 µM (active) | 0.0489 µM (active) | < 0.01 µM (active) | 0.0322 µM (active) | 0.0332 µM (active) | 0.146 µM (active) | 3.81 | 0.0489 µM (active) | 0.119 µM (active) | < 0.0134 µM (active) | 0.144 µM (active) | < 0.0347 µM (active) |
| CCOC(=O)C(Cc1ccc(OC(=O)OC(C)(C)C)cc1)NC(=O)OC(C)(C)C (configuration not stated) |  | 44.8 µM (inactive) | > 100 µM (inactive) | > 100 µM (inactive) | 65.2 µM (inactive) | 30.3 µM (inactive) | 53.2 µM (inactive) | 34.8 µM (inactive) | > 100 µM (inactive) | > 100 µM (inactive) | 19.7 µM (inactive) | > 100 µM (inactive) | 76.4 µM (inactive) | > 100 µM (inactive) | > 100 | > 100 µM (inactive) | 29 µM (inactive) | 30.5 µM (inactive) | > 100 µM (inactive) | 47.5 µM (inactive) |
| CC1=CC(=O)/C(=C/NC(=S)C(N)=S)C(=O)O1 |  | > 100 µM (inactive) | > 100 µM (inactive) | > 100 µM (inactive) | > 100 µM (inactive) | > 100 µM (inactive) | > 100 µM (inactive) | > 100 µM (inactive) | > 100 µM (inactive) | > 100 µM (inactive) | 16 µM (inactive) | > 100 µM (inactive) | > 100 µM (inactive) | > 100 µM (inactive) | > 100 | > 100 µM (inactive) | > 100 µM (inactive) | > 100 µM (inactive) | > 100 µM (inactive) | > 100 µM (inactive) |
| O=CC1=CCCC2(C1)OCCO2 | > 100 µM (inactive) | > 100 µM (inactive) |  | > 100 µM (inactive) | > 100 µM (inactive) | > 100 µM (inactive) | > 100 µM (inactive) | > 100 µM (inactive) | > 100 µM (inactive) | > 100 µM (inactive) |  | > 100 µM (inactive) | > 100 µM (inactive) | > 100 µM (inactive) | > 100 | > 100 µM (inactive) |  |  |  |  |
| C[N+](C)(CCNC(=O)c1cccc2cc3ccccc3nc12)Cc1ccc([N+](=O)[O-])cc1 |  | > 100 µM (inactive) | > 100 µM (inactive) | > 100 µM (inactive) | > 100 µM (inactive) | > 100 µM (inactive) | > 100 µM (inactive) | > 100 µM (inactive) | > 100 µM (inactive) | > 100 µM (inactive) | > 100 µM (inactive) | > 100 µM (inactive) | > 100 µM (inactive) | 50 µM (inactive) | > 100 | > 100 µM (inactive) | > 100 µM (inactive) | > 100 µM (inactive) | > 100 µM (inactive) | > 100 µM (inactive) |
| CC1(C)N=C(c2ccccn2)C(c2ccccn2)=NC1(C)C | > 100 µM (inactive) | > 100 µM (inactive) | > 100 µM (inactive) |  | > 100 µM (inactive) | > 100 µM (inactive) | > 100 µM (inactive) | > 100 µM (inactive) |  |  | > 100 µM (inactive) | > 100 µM (inactive) | > 100 µM (inactive) | > 100 µM (inactive) | > 100 | > 100 µM (inactive) |  |  |  |  |
| COc1ccccc1NC(=O)CC(=O)N1N=C(c2ccccc2)C(/N=N/c2ccc(Cl)cc2)C1=O (configuration not stated) | > 100 µM (inactive) | 36.8 µM (inactive) | > 100 µM (inactive) | 23.4 µM (inactive) | 50.2 µM (inactive) | 45.6 µM (inactive) |  | 13.9 µM (inactive) | 37 µM (inactive) | 34.4 µM (inactive) | 41.1 µM (inactive) | 25.2 µM (inactive) | 29 µM (inactive) | 14.6 µM (inactive) | 58.6 | 69.7 µM (inactive) |  |  |  |  |
| NC(=O)c1cccc(/N=c2\oc3ccc(Br)cc3cc2-c2nc3ccccc3[nH]2)c1 |  | 2.49 µM (inactive) | 16.3 µM (inactive) | 16.2 µM (inactive) | 15.1 µM (inactive) | 15.3 µM (inactive) | 22 µM (inactive) | 14.5 µM (inactive) | > 100 µM (inactive) | 16 µM (inactive) | 12.5 µM (inactive) | 18.8 µM (inactive) | 18.8 µM (inactive) | 1.81 µM (inactive) | 12.7 | 19.9 µM (inactive) | 10 µM (inactive) | 15.5 µM (inactive) | 13.6 µM (inactive) | 27.4 µM (inactive) |
| NC(=O)C(c1ccccc1)N1CCOCC1 (configuration not stated) | > 100 µM (inactive) | > 100 µM (inactive) | > 100 µM (inactive) | > 100 µM (inactive) | > 100 µM (inactive) |  | > 100 µM (inactive) | > 100 µM (inactive) | > 100 µM (inactive) | > 100 µM (inactive) | > 100 µM (inactive) | > 100 µM (inactive) | > 100 µM (inactive) | > 100 µM (inactive) | > 100 | > 100 µM (inactive) |  |  |  |  |
| O=c1n(CCO)nc2n1CCCN2 |  | > 100 µM (inactive) | > 100 µM (inactive) | > 100 µM (inactive) | > 100 µM (inactive) | > 100 µM (inactive) | > 100 µM (inactive) | > 100 µM (inactive) | > 100 µM (inactive) | > 100 µM (inactive) | > 100 µM (inactive) | > 100 µM (inactive) | > 100 µM (inactive) | > 100 µM (inactive) | > 100 | > 100 µM (inactive) | > 100 µM (inactive) | > 100 µM (inactive) | > 100 µM (inactive) | > 100 µM (inactive) |
| COC(=O)[C@]12CCC(C)[C@H](C)[C@H]1C1=CCC3[C@@]4(C)CC[C@H](OC(C)=O)C(C)(C)C4CC[C@@]3(C)C1(C)C(O)C2 (some centres not stated) | > 100 µM (inactive) | > 100 µM (inactive) | > 100 µM (inactive) | > 100 µM (inactive) | > 100 µM (inactive) | > 100 µM (inactive) |  | > 100 µM (inactive) | > 100 µM (inactive) | > 100 µM (inactive) | 86.5 µM (inactive) | > 100 µM (inactive) | 89.1 µM (inactive) | > 100 µM (inactive) |  | > 100 µM (inactive) |  |  |  |  |
| C/C=C1/CN2[C@@H](C3=C[C@@H]4[C@@H]5N(C3=O)c3ccccc3[C@@]53CCN5C/C(=C/C)[C@@H]4C[C@H]53)C[C@@]34c5ccccc5N5C(=O)CC=C([C@H]1C[C@H]23)[C@H]54 [ISOSUNGUCINE] |  | 1.11 µM (active) | 7.76 µM (inactive) | 7.06 µM (inactive) | 6.19 µM (inactive) | 2.43 µM (inactive) | 2.17 µM (inactive) | 2.16 µM (inactive) | 1.42 µM (inactive) | 6.85 µM (inactive) | 1.46 µM (inactive) | 6.43 µM (inactive) | 2.05 µM (inactive) | 2.75 µM (inactive) | 2.33 | 5.32 µM (inactive) | 9.93 µM (inactive) | 9.91 µM (inactive) | 8.34 µM (inactive) | 6.65 µM (inactive) |
